Results as given in US4607012A, “Antibiotic SB 22484” (Gruppo Lepetit S.p.A., priority 1983, dated 1986).

Assays:
N. gonorrhoeae L 1596 = assay: in vitro antibacterial activity (standard dilution test); type: cell-based; conditions: Neisseria gonorrhoeae, L1596; N. gonorrhoeae L 1596, clinically isolated, resistant to spectinomycin; GC agar base + 1% Iso-Vitalex, CO2 enriched, 18-24 h, 37° C
Experimental: (§1) Iso-Sensitest broth (Oxoid) and Todd-Hewitt broth (Difco) are used for staphylococci and streptococci, respectively, Neisseriae strains are cultured on GC agar base (Difco)+1% Iso-Vitalex (BBL) and Hemophylus is cultured on GC agar base (Difco)+1% Iso-Vitalex (BBL)+1% hemoglobin (Difco). Broth cultures are diluted so that the final inoculum is about 10^4 -10^5 colony forming units/ml (CFU/ml). […] Neisseriae strains are incubated in a CO2 enriched atmosphere.

N. gonorrhoeae L 1599 = assay: as above; type: cell-based; conditions: Neisseria gonorrhoeae, L1599; N. gonorrhoeae L 1599, clinically isolated, penicillinase producing; GC agar base + 1% Iso-Vitalex, CO2 enriched, 18-24 h, 37° C
Experimental: as §1

| MIC (N. gonorrhoeae L 1596) | SMILES | MIC (N. gonorrhoeae L 1599) |
| --- | --- | --- |
| > 12 µg/mL | CN[C@@H]1[C@H](O)[C@H](NC)[C@H]2O[C@@]3(O)C(=O)C[C@@H](C)O[C@H]3O[C@@H]2[C@H]1O [spectinomycin] |  |
|  | CC1(C)S[C@@H]2[C@H](NC(=O)Cc3ccccc3)C(=O)N2[C@H]1C(=O)O [penicillin] | > 50 µg/mL |
